Data published in US7879838B2, “Heteroaryl substituted pyrazinyl-piperazine-piperidines with CXCR3 antagonist activity” (Schering Corporation, priority 2005, dated 2011).

Target: T1, Human CXCR3 (N-delta 4) (Homo sapiens, UniProt P49682)
T1 construct: CD8 leader (N); Flag tag; expressed in transfected cells; membranes prepared
T1 sequence (P49682 5-368 limits assumed): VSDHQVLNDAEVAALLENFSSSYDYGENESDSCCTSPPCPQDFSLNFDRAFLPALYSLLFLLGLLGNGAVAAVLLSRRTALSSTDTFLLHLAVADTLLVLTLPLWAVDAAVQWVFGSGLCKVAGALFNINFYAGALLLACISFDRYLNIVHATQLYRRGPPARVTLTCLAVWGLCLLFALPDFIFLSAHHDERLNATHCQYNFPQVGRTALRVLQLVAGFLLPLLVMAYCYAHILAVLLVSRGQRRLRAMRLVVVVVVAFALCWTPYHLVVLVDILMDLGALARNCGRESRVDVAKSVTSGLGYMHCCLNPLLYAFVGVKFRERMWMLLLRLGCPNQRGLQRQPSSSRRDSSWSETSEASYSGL
Test: Human CXCR3 (N-delta 4) scintillation proximity assay (SPA), [125I] IP-10 binding to Ba/F3-hCXCR3 membranes
Source text: The inventive compounds can readily be evaluated to determine activity at The CXCR3 receptors by known methods, such as, for example, Development of Human CXCR3 (N-delta 4) Binding Assay.
Cloning and Expression of Human CXCR3 (N-delta 4):
The DNA encoding human CXCR3 was cloned by PCR using human genomic DNA (Promega, Madison, Wis.) as a template. The PCR primers were designed based on the published sequence of human orphan receptor GPR9 (1) with incorporated restriction sites, a Kozak consensus sequence, CD8 leader and Flag tag. The PCR product was subcloned into the mammalian expression vector pME18Sneo, a derivative of the SR-alpha expression vector (designated as pME18Sneo-hCXCR3 (N-delta 4).
IL-3-dependent mouse pro-B cells Ba/F3 were transfected by electroporation in 0.4 ml Dulbecco's PBS containing 4×10^6 cells with 20 μg of pME18Sneo-hCXCR3 (N-delta 4) plasmid DNA. Cells were pulsed at 400 Volts, 100 OHMs, 960 μFd. The transfected cells were under selection with 1 mg/ml G418 (Life Technologies, Gaithersburg, Md.). G418-resistant Ba/F3 clones were screened for CXCR3 expression by specific binding of [^125I] IP-10 (NEN Life Science Products, Boston, Mass.).
Preparation of Ba/F3-hCXCR3 (N-delta 4) Membranes
Ba/F3 cells expressing human CXCR3 (N-delta 4) were pelleted and resuspended in the lysis buffer containing 10 mM HEPES, pH 7.5 and Complete® protease inhibitors (1 tablet per 100 ml) (Boehringer Mannheim, Indianapolis, Ind.) at a cell density of 20×10^6 cells per ml. After 5 minutes incubation on ice, cells were transferred to 4639 cell disruption bomb (Parr Instrument, Moline, Ill.) and applied with 1,500 psi of nitrogen for 30 minutes on ice. Large cellular debris was removed by centrifugation at 1,000×g. Cell membrane in the supernatant was sedimented at 100,000×g. The membrane was resuspended in the lysis buffer supplemented with 10% sucrose and stored at −80° C. Total protein concentration of the membrane was determined by BCA method from Pierce (Rockford, Ill.).
Human CXCR3 (N-delta 4) Scintillation Proximity Assay (SPA)
For each assay point, 2 μg of membrane was preincubated for 1 hr with 300 μg wheat germ agglutinin (WGA) coated SPA beads (Amersham, Arlington Heights, Ill.) in the binding buffer (50 mM HEPES, 1 mM CaCl2, 5 mM MgCl2, 125 mM NaCl, 0.002% NaN3, 1.0% BSA) at room temperature. The beads were spun down, washed once, resuspended in the binding buffer and transferred to a 96-well Isoplate (Wallac, Gaithersburg, Md.). 25 pM of [^125I] IP-10 with tested compounds in a series of titration were added to start the reaction. After 3 hr reaction at room temperature, the amount of [^125I] IP-10 bound to the SPA beads was determined with a Wallac 1450 Microbeta counter.
The Ki values for the various example compounds of the present invention are given in the afore-mentioned Table 1. From these values, it would be apparent to the skilled artisan that the compounds of the invention have excellent utility CXCR3 antagonists.

[1] = IC50 rating, 25 pM [125I] IP-10, membranes of Ba/F3 cells expressing human CXCR3 (N-delta 4)

| IC50 [1] | IC50 (human CXCR3 (N-delta 4) SPA) | SMILES |
| --- | --- | --- |
| < 25 nM | 0.7 nM | CC[C@H]1CN(c2nc(N)c(C(=O)NC(=N)NC)nc2Cl)CCN1C1CCN(C(=O)c2ccc(Cl)nc2N)CC1 [Compound No. 1] |
| < 25 nM | – | CCNC(=N)NC(=O)c1nc(Cl)c(N2CCN(C3CCN(C(=O)c4ccc(Cl)nc4N)CC3)[C@@H](CC)C2)nc1N [Compound No. 5] |
| < 25 nM | – | CC[C@H]1CN(c2nc(N)c(C(=O)N[C@H]3CC[C@H]3O)nc2Cl)CCN1C1CCN(C(=O)c2ccc(Cl)nc2N)CC1 [Compound No. 15] |
| 25 to 100 nM | – | CC[C@H]1CN(c2nc(N)c(C(=O)OC)nc2Cl)CCN1C1CCN(C(=O)c2ccc(Cl)nc2N)CC1 [Compound No. 58] |
| < 25 nM | – | CC[C@H]1CN(c2ncc(C(=O)NC3CC3)nc2C)CCN1C1CCN(C(=O)c2ccc(Cl)nc2N)CC1 [Compound No. 155] |
| < 25 nM | – | CCNC(=O)c1nc(C)c(N2CCN(C3CCN(C(=O)c4ccc(Cl)nc4N)CC3)[C@@H](CC)C2)nc1N [Compound No. 156] |
| < 25 nM | – | CC[C@H]1CN(c2nc(N)c(C(=O)NC3CC3)nc2C)CCN1C1CCN(C(=O)c2ccc(Cl)nc2N)CC1 [Compound No. 157] |
| < 25 nM | – | CC[C@H]1CN(c2nc(N)c(C(=O)NC[C@@H](C)O)nc2Cl)CCN1C1CCN(Cc2ccc(Cl)nc2N)CC1 [compound 2] |
| < 25 nM | – | CC[C@H]1CN(c2nc(N)c(C(=O)NC(=N)N)nc2Cl)CCN1C1CCN(C(=O)c2ccc(Cl)nc2N)CC1 [compound 3] |
| < 25 nM | – | CC[C@H]1CN(c2nc(N)c(C(=O)NC3CC3)nc2Cl)CCN1C1CCN(C(=O)c2ccc(Cl)nc2N)CC1 [compound 4] |
| < 25 nM | – | CC[C@H]1CN(c2nc(N)c(C(=O)NC3CC3)nc2Cl)CCN1C1CCN(C(=O)c2cc(F)c(Cl)nc2N)CC1 [compound 6] |
| < 25 nM | – | CC[C@H]1CN(c2nc(N)c(C(=O)NCCO)nc2Cl)CCN1C1CCN(C(=O)c2ccc(Cl)nc2N)CC1 [compound 7] |
| < 25 nM | – | CC[C@H]1CN(c2nc(N)c(C(=O)NC[C@@H](C)O)nc2Cl)CCN1C1CCN(C(=O)c2ccc(Cl)nc2N)CC1 [compound 8] |
| < 25 nM | – | CC[C@H]1CN(c2nc(N)c(C(=O)N[C@@H]3CC[C@@H]3O)nc2Cl)CCN1C1CCN(C(=O)c2ccc(Cl)nc2N)CC1 [compound 9] |
| < 25 nM | – | CC[C@H]1CN(c2ncc(C(N)=O)nc2Cl)CCN1C1CCN(C(=O)c2ccc(Cl)nc2N)CC1 [compound 10] |
| < 25 nM | – | CC[C@H]1CN(c2ncc(C(=O)NC[C@@H](C)O)nc2Cl)CCN1C1CCN(C(=O)c2ccc(Cl)nc2N)CC1 [compound 11] |
| < 25 nM | – | CC[C@H]1CN(c2nc(N)c(C(=O)NCC(F)(F)F)nc2Cl)CCN1C1CCN(C(=O)c2ccc(Cl)nc2N)CC1 [compound 12] |
| < 25 nM | – | CC[C@H]1CN(c2nc(N)c(C(=O)NC)nc2Cl)CCN1C1CCN(C(=O)c2cc(F)c(Cl)nc2N)CC1 [compound 13] |
| < 25 nM | – | CC[C@H]1CN(c2nc(N)c(C(=O)NC(=N)NC(C)=O)nc2Cl)CCN1C1CCN(C(=O)c2ccc(Cl)nc2N)CC1 [compound 14] |
| < 25 nM | – | CC[C@H]1CN(c2nc(N)c(C(=O)NC3CC3)nc2Cl)CCN1C1CCN(C(=O)c2cc(F)c(Cl)nc2Cl)CC1 [compound 16] |
| < 25 nM | – | CC[C@H]1CN(c2nc(NCCOC)c(C(=O)NC3CC3)nc2Cl)CCN1C1CCN(C(=O)c2ccc(Cl)nc2N)CC1 [compound 17] |
| < 25 nM | – | CC[C@H]1CN(c2nc(N)c(C(=O)N[C@@H]3CCC[C@H]3O)nc2Cl)CCN1C1CCN(C(=O)c2ccc(Cl)nc2N)CC1 [compound 18] |
| < 25 nM | – | CC[C@H]1CN(c2nc(N)c(C(=O)NC3CC3)nc2Cl)CCN1C1CCN(C(=O)c2ccc(Cl)nc2Cl)CC1 [compound 19] |
| < 25 nM | – | CC[C@H]1CN(c2nc(N)c(C(=O)NCCO)nc2Cl)CCN1C1CCN(Cc2ccc(Cl)nc2)CC1 [compound 20] |

| IC50 [1] | IC50 (human CXCR3 (N-delta 4) SPA) | SMILES |
| --- | --- | --- |
| < 25 nM | – | CC[C@H]1CN(c2nc(N)c(C(=O)NCC3CC3)nc2Cl)CCN1C1CCN(C(=O)c2ccc(Cl)nc2N)CC1 [compound 21] |
| < 25 nM | – | CC[C@H]1CN(c2nc(N)c(C(=O)NCCO)nc2Cl)CCN1C1CCN(C(=O)c2cc(F)c(Cl)nc2Cl)CC1 [compound 22] |
| < 25 nM | – | CC[C@H]1CN(c2nc(N)c(C(=O)NC3(CO)CC3)nc2Cl)CCN1C1CCN(C(=O)c2ccc(Cl)nc2N)CC1 [compound 24] |
| < 25 nM | – | CC[C@H]1CN(c2nc(N)c(C(=O)NCC(C)O)nc2Cl)CCN1C1CCN(C(=O)c2ccc(Cl)nc2N)CC1 (stereo partly shown) [compound 25] |
| < 25 nM | – | CC[C@H]1CN(c2nc(N)c(C(=O)NCCC#N)nc2Cl)CCN1C1CCN(C(=O)c2ccc(Cl)nc2N)CC1 [compound 26] |
| < 25 nM | – | CC[C@H]1CN(c2nc(N)c(C(=O)NC3CCCC3O)nc2Cl)CCN1C1CCN(C(=O)c2ccc(Cl)nc2N)CC1 (stereo partly shown) [compound 27] |
| < 25 nM | – | CC[C@H]1CN(c2nc(N)c(C(=O)Nc3ncc[nH]3)nc2Cl)CCN1C1CCN(C(=O)c2ccc(Cl)nc2N)CC1 [compound 28] |
| < 25 nM | – | CC[C@H]1CN(c2nc(N)c(C(=O)NCCO)nc2Cl)CCN1C1CCN(Cc2ccc(Cl)nc2Cl)CC1 [compound 29] |
| < 25 nM | – | CC[C@H]1CN(c2nc(NCCC(=O)OC)c(C(=O)NC3CC3)nc2Cl)CCN1C1CCN(C(=O)c2ccc(Cl)nc2N)CC1 [compound 30] |
| < 25 nM | – | CC[C@H]1CN(c2nc(N)c(C(N)=O)nc2Cl)CCN1C1CCN(Cc2ccc(Cl)nc2N)CC1 [compound 31] |
| < 25 nM | – | CC[C@H]1CN(c2nc(N)c(C(=O)NCC3(O)CC3)nc2Cl)CCN1C1CCN(C(=O)c2ccc(Cl)nc2N)CC1 [compound 32] |
| < 25 nM | – | CC[C@H]1CN(c2nc(N)c(C(=O)Nc3ccon3)nc2Cl)CCN1C1CCN(C(=O)c2ccc(Cl)nc2N)CC1 [compound 33] |
| < 25 nM | – | CC[C@H]1CN(c2nc(N)c(C(=O)NCCNS(C)(=O)=O)nc2Cl)CCN1C1CCN(Cc2ccc(Cl)nc2N)CC1 [compound 34] |
| < 25 nM | – | CC[C@H]1CN(c2nc(N)c(C(N)=O)nc2Cl)CCN1C1CCN(C(=O)c2ccc(Cl)nc2N)CC1 [compound 35] |
| < 25 nM | – | CC[C@H]1CN(c2nc(N)c(C(=O)N[C@@H]3C[C@@H]3F)nc2Cl)CCN1C1CCN(C(=O)c2ccc(Cl)nc2N)CC1 [compound 37] |
| < 25 nM | – | CC[C@H]1CN(c2nc(NC(=O)N(C)C)c(C(=O)NC3CC3)nc2Cl)CCN1C1CCN(C(=O)c2ccc(Cl)nc2N)CC1 [compound 38] |
| < 25 nM | – | CC[C@H]1CN(c2nc(N)c(C(=O)NCCO)nc2Cl)CCN1C1CCN(Cc2ccc(OC)nc2)CC1 [compound 39] |
| < 25 nM | – | CC[C@H]1CN(c2nc(N)c(C(=O)NCCO)nc2Cl)CCN1C1CCN(C(=O)c2ccc(Cl)nc2Cl)CC1 [compound 40] |
| < 25 nM | – | CC[C@H]1CN(c2nc(N)c(C(N)=O)nc2Cl)CCN1C1CCN(C(=O)c2cc(F)c(Cl)nc2N)CC1 [compound 41] |
| < 25 nM | – | CC[C@H]1CN(c2nc(N)c(C(=O)N[C@H]3CCC[C@@H]3O)nc2Cl)CCN1C1CCN(C(=O)c2ccc(Cl)nc2N)CC1 [compound 42] |
| < 25 nM | – | CC[C@H]1CN(c2nc(N)c(C(=O)NC)nc2Cl)CCN1C1CCN(C(=O)c2ccc(Cl)nc2Cl)CC1 [compound 43] |
| < 25 nM | – | CC[C@H]1CN(c2nc(N)c(C(=O)NC)nc2Cl)CCN1C1CCN(C(=O)c2ccc(Cl)nc2)CC1 [compound 44] |
| < 25 nM | – | CC[C@H]1CN(c2nc(N)c(C(=O)NC)nc2Cl)CCN1C1CCN(C(=O)c2cc(F)c(Cl)nc2Cl)CC1 [compound 45] |
| < 25 nM | – | CCNC(=O)NCc1nc(Cl)c(N2CCN(C3CCN(C(=O)c4ccc(Cl)nc4N)CC3)[C@@H](CC)C2)nc1N [compound 47] |
